According to patent publication US20240002374A1, “5-MEMBERED HETEROARYLAMINOSULFONAMIDES FOR TREATING CONDITIONS MEDIATED BY DEFICIENT CFTR ACTIVITY” (Genzyme Corporation, priority 2019, published 2024):

target: T1, CFTR (primary human bronchial epithelial cells from a ΔF508 homozygous CF donor, CF-HBE cells) (Homo sapiens, UniProt P13569, DEL508-508); assay: TECC24 recording of CFTR-mediated transepithelial chloride transport (TECC24 AUC fold over DMSO @ 3 μM); format: cell-based; conditions: 3 uM test agent; CF-HBE cells (ΔF508 homozygous) incubated 48 h; ratio of test agent AUC of forskolin-stimulated IEQ to vehicle (DMSO) AUC
T1 construct: Primary human bronchial epithelial cells from a ΔF508 homozygous CF donor; host or cells: primary human bronchial epithelial cells (CF-HBE) from a ΔF508 homozygous CF donor
T1 sequence (P13569 with tags, fused parts or gaps DEL508-508): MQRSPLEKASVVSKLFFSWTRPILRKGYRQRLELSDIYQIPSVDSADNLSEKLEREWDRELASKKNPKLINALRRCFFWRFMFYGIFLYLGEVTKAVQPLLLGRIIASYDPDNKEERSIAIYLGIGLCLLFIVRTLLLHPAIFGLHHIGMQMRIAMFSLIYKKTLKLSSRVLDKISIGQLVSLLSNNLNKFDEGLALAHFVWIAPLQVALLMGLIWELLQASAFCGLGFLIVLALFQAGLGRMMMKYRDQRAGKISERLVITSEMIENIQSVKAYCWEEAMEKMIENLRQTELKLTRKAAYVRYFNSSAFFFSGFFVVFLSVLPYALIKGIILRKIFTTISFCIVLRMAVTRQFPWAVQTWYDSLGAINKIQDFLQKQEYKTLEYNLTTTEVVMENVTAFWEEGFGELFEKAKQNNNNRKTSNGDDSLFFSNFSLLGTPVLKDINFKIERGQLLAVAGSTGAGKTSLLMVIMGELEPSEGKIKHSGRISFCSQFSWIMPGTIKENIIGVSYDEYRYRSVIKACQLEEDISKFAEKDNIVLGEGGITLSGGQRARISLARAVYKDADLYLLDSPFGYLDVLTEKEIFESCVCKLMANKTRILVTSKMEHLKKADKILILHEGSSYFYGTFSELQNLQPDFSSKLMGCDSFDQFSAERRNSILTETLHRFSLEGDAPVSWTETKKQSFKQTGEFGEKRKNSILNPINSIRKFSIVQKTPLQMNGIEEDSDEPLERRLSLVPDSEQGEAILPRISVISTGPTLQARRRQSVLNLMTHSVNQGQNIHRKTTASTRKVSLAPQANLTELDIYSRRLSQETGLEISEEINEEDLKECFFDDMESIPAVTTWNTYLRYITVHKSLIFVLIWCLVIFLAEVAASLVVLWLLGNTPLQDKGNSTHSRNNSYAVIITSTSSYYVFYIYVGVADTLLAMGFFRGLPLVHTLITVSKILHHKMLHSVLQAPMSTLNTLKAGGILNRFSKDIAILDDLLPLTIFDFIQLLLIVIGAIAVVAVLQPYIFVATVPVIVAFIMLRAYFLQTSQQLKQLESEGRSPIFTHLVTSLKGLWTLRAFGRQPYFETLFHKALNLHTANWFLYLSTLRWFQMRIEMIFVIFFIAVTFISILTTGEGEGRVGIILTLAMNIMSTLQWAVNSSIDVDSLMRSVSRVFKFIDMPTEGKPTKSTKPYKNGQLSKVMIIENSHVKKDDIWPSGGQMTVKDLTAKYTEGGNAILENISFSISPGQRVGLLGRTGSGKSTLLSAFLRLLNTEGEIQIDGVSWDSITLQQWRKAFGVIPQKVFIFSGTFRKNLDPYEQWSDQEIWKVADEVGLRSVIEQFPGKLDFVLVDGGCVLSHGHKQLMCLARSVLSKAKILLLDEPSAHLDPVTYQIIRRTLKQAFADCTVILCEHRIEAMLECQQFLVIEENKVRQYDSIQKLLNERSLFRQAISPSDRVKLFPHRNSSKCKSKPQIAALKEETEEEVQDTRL
Procedure, shortened: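 ΔF508-homozygous CF-HBE cells incubated 48 h at 36.5° C with test agent (3 μM) in IL-13-containing medium, then recorded in current clamp with benzamil (10 μM), forskolin (10 μM) and bumetanide (20 μM). AUC of equivalent Cl− current between forskolin and bumetanide expressed as fold over DMSO vehicle.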

| SMILES | TECC AUC vs. DMSO @ 3 uM |
| --- | --- |
| Nc1cccc(S(=O)(=O)Nc2nc(-c3ccccc3C(F)(F)F)c(-c3cccc([C@@H]4CC[C@H](OC(F)(F)F)C4)c3)s2)c1F [Example 47B1, 3-Amino-2-fluoro-N-(5-(3-((1R,3S)-3-(trifluoromethoxy)cyclopentyl)phenyl)-4-(2-(trifluoromethyl)phenyl)thiazol-2-yl)benzenesulfonamide] | A (“A” refers to AUC > 5) |
| Nc1cccc(S(=O)(=O)Nc2nc(-c3ccccc3C(F)(F)F)c(-c3cccc([C@H]4CC[C@H](OC(F)(F)F)C4)c3)s2)c1F (single isomer, unassigned) [Example 47A2] | C (“C” refers to AUC < 2) |
| Cc1nn(C)cc1S(=O)(=O)Nc1nc(-c2ccccc2C(C)C)c(-c2cccc([C@@H]3CC[C@@H](OC(F)(F)F)C3)c2)s1 [Example 46B2, N-(4-(2-Isopropylphenyl)-5-(3-((1R,3R)-3-(trifluoromethoxy)cyclopentyl)phenyl)thiazol-2-yl)-1,3-dimethyl-1H-pyrazole-4-sulfonamide] | C (“C” refers to AUC < 2) |
| CC(Oc1cc(F)ccc1-c1nc(NS(=O)(=O)c2ccn(C)n2)sc1-c1cc(F)cc(OCCC(C)(C)C)c1)C(F)(F)F (centres unmarked) [Example 5, N-(5-(3-(3,3-Dimethylbutoxy)-5-fluorophenyl)-4-(4-fluoro-2-((1,1,1-trifluoropropan-2-yl)oxy)phenyl)thiazol-2-yl)-1-methyl-1H-pyrazole-3-sulfonamide] | B (“B” refers to AUC 2-5) |
| Cc1cccc(C)c1-c1nc(NS(=O)(=O)c2ccccc2)sc1-c1cc(F)cc(OCC(C)(C)C)c1 [Example 1, N-(4-(2,6-Dimethylphenyl)-5-(3-fluoro-5-(neopentyloxy)phenyl)thiazol-2-yl)benzenesulfonamide] | A (“A” refers to AUC > 5) |
| CC(C)(C)CCCOc1ccn(-c2sc(NS(=O)(=O)c3ccccc3)nc2-c2ccccc2C(F)(F)F)n1 [Example 40, N-(5-(3-((4,4-Dimethylpentyl)oxy)-1H-pyrazol-1-yl)-4-(2-(trifluoromethyl)phenyl)thiazol-2-yl)benzenesulfonamide] | A (“A” refers to AUC > 5) |
| CC(C)c1ccccc1-c1nc(NS(=O)(=O)c2cccc(N)c2)sc1-c1cc(F)cc(OCCC(C)(C)C)c1 [Example 11, 3-Amino-N-(5-(3-(3,3-dimethylbutoxy)-5-fluorophenyl)-4-(2-isopropylphenyl)thiazol-2-yl)benzenesulfonamide] | A (“A” refers to AUC > 5) |
| CNc1cccc(S(=O)(=O)Nc2nc(-c3ccccc3C(C)C)c(-c3cccc(OCCC(C)(C)C)c3)s2)c1 [Example 21, N-(5-(3-(3,3-Dimethylbutoxy)phenyl)-4-(2-isopropylphenyl)thiazol-2-yl)-3-(methylamino)benzenesulfonamide] | A (“A” refers to AUC > 5) |
| COC(=O)C1CCCC(Nc2cccc(S(=O)(=O)Nc3nc(-c4c(C)cccc4C)c(-c4cccc(OCCC(C)(C)C)c4)s3)n2)C1 (centres unmarked) [Example 435, methyl 3-[[6-[[5-[3-(3,3-dimethylbutoxy)phenyl]-4-(2,6-dimethylphenyl)-1,3-thiazol-2-yl]sulfamoyl]pyridin-2-yl]amino]cyclohexane-1-carboxylate] | A (“A” refers to AUC > 5) |
| O=S(=O)(Nc1nc(-c2ccccc2C(F)(F)F)c(-c2cccc([C@H]3CC[C@H](OC(F)(F)F)C3)c2)s1)c1ccccc1 (single isomer, unassigned) [Example 44A2] | C (“C” refers to AUC < 2) |
| CC(C)c1ccccc1-c1nc(NS(=O)(=O)c2cccc(N)c2F)sc1-c1cccc([C@H]2CC[C@H](OC(F)(F)F)C2)c1 [Example 48A2, 3-Amino-2-fluoro-N-(4-(2-isopropylphenyl)-5-(3-((1S,3S)-3-(trifluoromethoxy)cyclopentyl)phenyl)thiazol-2-yl)benzenesulfonamide] | A (“A” refers to AUC > 5) |
